Like-named read-outs stand apart in the source and are kept apart here.
Assays:
[1] = test system: human cerebrovascular pericytes (HBVP); experiment: MTT assay on human neovascular cells; format: cell-based
EGFR L858R/T790M/C797S = EGFR L858R/T790M/C797S (Homo sapiens (Human), UniProt P00533, C797S/L858R/T790M); experiment: Kinase selectivity test; format: biochemical; details: 100 nM
Experimental: (§1) The method adopted in the test was Caliper Mobility Shift Assay, which was a detection platform based on the mobility detection technology of microfluidic chip technology. Test steps: 1.25× kinase reaction buffer (62.5 mmol/L HEPES, pH 7.5; 0.001875% Brij-35; 12.5 mmol/L MgCl2; 2.5 mM DTT) and kinase reaction stop solution (100 mmol/L HEPES, pH 7.5; 0.015% Brij-35; 0.2% Coating Reagent #3) were configured. […] Collected data was tested on Caliper to yield that inhibition ratio to kinase activity=(max−conversion)/(max−min)×100. “max” was DMSO control without adding compound, and “min” was low control. When IC50 was determined, each sample was provided with 10 dilutions, each with 2 multiple holes, and repeated for 3 times.
(§2) According to the above-mentioned method for measuring kinase inhibitory activity, the inhibitory activity of the active compounds on other multiple kinases was measured to characterize the kinase selectivity of active inhibitors.

FGFR3 = FGFR3 (Homo sapiens (Human), UniProt P22607); experiment: Kinase selectivity test; format: biochemical; details: 100 nM
Experimental: as §1, §2

BTK = BTK (Homo sapiens (Human), UniProt Q06187); experiment: Kinase selectivity test; format: biochemical; details: 100 nM
Experimental: as §1, §2

EGFR = EGFR (Homo sapiens (Human), UniProt P00533); experiment: Kinase selectivity test; format: biochemical; details: 100 nM
Experimental: as §1, §2

FGFR1 = FGFR1 (Homo sapiens (Human), UniProt P11362); experiment: Kinase selectivity test; format: biochemical; details: 100 nM
Sequence of FGFR1 (P11362 22-822, species assumed): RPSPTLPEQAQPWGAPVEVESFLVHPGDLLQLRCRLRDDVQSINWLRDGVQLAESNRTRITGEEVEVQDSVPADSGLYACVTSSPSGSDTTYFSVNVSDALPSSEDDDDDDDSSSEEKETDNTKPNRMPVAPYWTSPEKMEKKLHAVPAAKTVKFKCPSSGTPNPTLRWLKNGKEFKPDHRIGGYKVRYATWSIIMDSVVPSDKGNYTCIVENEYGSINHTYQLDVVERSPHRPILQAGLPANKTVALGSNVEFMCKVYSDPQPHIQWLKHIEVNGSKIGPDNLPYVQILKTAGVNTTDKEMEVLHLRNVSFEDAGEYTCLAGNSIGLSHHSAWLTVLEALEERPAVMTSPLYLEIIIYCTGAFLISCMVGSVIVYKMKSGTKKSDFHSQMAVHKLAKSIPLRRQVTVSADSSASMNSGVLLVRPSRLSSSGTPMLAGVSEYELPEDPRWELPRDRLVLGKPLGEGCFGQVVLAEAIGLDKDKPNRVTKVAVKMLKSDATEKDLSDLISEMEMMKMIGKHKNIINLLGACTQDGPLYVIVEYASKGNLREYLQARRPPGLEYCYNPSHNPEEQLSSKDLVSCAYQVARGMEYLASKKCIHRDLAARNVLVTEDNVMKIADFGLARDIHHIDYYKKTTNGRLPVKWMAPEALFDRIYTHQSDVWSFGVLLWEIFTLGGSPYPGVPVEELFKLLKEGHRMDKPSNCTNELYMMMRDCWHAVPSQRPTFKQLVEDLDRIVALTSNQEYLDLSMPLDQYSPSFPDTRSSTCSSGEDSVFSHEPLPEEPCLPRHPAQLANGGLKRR
Experimental: as §1, §2

EGFR L858R = EGFR L858R (Homo sapiens (Human), UniProt P00533, L858R); experiment: Kinase selectivity test; format: biochemical; details: 100 nM
Experimental: as §1, §2

EGFR T790M = EGFR T790M (Homo sapiens (Human), UniProt P00533, T790M); experiment: Kinase selectivity test; format: biochemical; details: 100 nM
Sequence of EGFR T790M (P00533 25-1210 T790M): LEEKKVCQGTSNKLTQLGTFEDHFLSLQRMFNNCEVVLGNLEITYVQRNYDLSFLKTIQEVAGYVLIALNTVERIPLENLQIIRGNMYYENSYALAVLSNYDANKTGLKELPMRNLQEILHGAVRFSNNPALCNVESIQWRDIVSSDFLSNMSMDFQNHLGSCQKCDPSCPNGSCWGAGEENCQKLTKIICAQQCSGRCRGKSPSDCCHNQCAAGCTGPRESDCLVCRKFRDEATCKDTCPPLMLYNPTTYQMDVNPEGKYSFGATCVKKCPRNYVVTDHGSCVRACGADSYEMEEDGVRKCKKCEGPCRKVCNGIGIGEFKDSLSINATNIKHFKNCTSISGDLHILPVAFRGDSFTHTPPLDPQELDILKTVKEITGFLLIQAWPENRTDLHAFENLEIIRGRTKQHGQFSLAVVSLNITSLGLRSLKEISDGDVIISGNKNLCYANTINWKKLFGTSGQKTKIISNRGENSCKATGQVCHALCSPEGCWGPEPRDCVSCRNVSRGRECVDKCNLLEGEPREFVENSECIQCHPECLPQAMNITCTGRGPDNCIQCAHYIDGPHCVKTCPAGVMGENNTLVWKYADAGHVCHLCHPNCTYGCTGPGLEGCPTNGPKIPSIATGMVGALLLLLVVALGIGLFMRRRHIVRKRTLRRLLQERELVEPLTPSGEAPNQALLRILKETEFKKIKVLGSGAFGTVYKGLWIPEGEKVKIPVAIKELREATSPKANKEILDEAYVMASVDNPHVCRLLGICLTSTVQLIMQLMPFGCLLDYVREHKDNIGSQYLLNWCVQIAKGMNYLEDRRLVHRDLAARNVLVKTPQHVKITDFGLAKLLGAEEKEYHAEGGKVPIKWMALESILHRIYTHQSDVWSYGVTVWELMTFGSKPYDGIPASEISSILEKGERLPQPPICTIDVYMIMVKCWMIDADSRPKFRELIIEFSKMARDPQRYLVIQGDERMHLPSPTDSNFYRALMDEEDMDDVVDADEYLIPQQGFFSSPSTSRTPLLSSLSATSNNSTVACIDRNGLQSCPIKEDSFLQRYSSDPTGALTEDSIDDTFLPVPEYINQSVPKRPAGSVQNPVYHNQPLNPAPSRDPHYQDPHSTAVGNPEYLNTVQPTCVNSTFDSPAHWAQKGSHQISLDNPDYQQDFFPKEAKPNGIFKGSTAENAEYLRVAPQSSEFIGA
Experimental: as §1, §2

SRC = SRC (Homo sapiens (Human), UniProt P12931); experiment: Kinase selectivity test; format: biochemical; details: 100 nM
Sequence of SRC (P12931 whole entry, looked up, species assumed): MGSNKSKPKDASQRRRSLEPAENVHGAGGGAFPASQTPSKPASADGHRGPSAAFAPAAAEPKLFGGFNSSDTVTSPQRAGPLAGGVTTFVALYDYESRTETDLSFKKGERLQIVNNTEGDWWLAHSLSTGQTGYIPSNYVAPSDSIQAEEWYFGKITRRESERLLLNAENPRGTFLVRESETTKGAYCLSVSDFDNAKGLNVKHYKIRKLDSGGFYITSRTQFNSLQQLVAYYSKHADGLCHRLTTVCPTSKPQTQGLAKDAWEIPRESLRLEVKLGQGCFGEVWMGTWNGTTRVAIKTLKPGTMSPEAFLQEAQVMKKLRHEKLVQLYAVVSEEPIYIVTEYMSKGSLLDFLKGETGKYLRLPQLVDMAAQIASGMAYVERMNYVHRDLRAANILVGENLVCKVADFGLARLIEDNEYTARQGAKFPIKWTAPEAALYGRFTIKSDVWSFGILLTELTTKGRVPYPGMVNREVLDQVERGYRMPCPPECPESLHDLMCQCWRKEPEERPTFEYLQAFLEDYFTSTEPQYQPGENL
Experimental: as §1, §2

KDR = KDR (Homo sapiens (Human), UniProt P35968); experiment: Kinase selectivity test; format: biochemical; details: 100 nM
Sequence of KDR (P35968 20-1356, species assumed): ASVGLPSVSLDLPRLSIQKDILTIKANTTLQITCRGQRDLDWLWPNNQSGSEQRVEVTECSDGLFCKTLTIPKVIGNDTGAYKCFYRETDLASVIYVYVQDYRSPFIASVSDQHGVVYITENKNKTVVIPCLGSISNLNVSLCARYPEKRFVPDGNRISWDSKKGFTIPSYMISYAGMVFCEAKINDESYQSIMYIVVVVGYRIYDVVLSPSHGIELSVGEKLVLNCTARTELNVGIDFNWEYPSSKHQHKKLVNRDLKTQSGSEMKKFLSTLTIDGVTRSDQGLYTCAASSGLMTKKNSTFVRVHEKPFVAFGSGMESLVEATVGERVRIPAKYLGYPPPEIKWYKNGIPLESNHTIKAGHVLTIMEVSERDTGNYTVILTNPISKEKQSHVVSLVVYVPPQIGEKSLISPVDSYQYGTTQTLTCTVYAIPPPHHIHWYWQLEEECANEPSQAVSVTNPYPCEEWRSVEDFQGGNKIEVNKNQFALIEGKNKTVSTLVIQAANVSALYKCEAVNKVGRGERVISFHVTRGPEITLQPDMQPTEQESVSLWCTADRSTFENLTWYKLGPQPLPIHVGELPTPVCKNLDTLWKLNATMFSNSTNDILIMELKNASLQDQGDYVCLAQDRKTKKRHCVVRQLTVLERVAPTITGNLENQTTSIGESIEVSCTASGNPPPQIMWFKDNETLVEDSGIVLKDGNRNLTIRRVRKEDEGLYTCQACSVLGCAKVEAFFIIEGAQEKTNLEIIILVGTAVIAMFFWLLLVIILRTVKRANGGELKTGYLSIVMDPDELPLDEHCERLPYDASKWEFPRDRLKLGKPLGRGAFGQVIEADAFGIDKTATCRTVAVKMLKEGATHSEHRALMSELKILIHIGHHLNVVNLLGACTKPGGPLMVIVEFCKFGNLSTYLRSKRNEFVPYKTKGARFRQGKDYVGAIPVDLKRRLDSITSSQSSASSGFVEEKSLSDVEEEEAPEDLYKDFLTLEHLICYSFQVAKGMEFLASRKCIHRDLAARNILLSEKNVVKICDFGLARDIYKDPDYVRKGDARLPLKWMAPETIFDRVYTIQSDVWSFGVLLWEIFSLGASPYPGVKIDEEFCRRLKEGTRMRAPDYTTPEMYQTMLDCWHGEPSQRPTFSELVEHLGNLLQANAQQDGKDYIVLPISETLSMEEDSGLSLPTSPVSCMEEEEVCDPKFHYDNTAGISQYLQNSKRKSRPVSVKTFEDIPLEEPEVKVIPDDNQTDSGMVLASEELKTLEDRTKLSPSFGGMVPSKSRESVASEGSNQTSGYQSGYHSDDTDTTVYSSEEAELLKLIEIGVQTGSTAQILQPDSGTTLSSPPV
Experimental: as §1, §2

FLT1 = FLT1 (Homo sapiens (Human), UniProt P17948); experiment: Kinase selectivity test; format: biochemical; details: 100 nM
Experimental: as §1, §2

EGFR/T790M/L858R = EGFR/T790M/L858R (Homo sapiens (Human), UniProt P00533, L858R/T790M); experiment: Kinase selectivity test; format: biochemical; details: 100 nM
Sequence of EGFR/T790M/L858R (P00533 25-1210 T790M/L858R): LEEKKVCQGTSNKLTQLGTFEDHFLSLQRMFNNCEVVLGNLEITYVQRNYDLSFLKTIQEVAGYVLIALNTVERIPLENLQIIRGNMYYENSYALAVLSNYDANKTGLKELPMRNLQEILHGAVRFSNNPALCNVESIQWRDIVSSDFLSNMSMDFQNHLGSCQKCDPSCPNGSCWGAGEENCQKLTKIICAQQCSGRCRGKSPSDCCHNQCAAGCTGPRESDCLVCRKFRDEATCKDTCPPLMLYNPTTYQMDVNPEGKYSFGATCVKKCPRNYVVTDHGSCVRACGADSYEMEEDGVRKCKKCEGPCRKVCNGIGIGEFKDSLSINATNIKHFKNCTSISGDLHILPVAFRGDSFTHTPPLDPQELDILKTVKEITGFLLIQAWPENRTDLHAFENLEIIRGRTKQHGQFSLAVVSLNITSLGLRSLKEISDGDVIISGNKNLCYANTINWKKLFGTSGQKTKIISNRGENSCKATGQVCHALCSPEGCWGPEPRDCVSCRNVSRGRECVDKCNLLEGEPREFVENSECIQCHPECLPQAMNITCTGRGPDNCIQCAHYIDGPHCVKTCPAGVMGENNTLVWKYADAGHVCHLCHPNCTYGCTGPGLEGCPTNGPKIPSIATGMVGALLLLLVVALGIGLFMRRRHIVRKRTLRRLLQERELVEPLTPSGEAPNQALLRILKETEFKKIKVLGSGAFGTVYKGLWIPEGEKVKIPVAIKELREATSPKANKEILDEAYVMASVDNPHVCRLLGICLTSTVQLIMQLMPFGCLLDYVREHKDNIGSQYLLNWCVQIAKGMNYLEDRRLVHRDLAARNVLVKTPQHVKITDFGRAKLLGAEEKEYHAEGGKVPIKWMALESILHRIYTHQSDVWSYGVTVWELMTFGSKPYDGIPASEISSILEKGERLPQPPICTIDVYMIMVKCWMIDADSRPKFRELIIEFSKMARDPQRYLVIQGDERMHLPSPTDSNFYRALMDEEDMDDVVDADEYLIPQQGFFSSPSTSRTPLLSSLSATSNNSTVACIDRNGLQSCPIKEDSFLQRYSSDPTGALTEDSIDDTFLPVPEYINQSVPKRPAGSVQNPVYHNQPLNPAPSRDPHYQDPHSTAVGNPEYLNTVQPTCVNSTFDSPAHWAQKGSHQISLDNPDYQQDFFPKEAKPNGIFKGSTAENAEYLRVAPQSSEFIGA
Experimental: as §1, §2

osteosarcoma cells MNNG [2] = experiment: Metastasis (scratch migration) test of osteosarcoma cells; format: cell-based; details: 0.1, 0.2 and 0.4 uM, compared with positive drugs
Experimental: (§3) The cells were washed with sterile PBS for three times, and basal medium containing 2.5 μL of TCS was added respectively. Photographs were taken at 0 hour, 24 hours and 48 hours under an inverted microscope, and migration distances were measured with Imag J software.

osteosarcoma cells MG63 [3] = experiment: as above; format: cell-based; details: 0.1, 0.2 and 0.4 uM, compared with positive drugs
Experimental: as §3

[4] = test system: human brain microvascular endothelial cells (HCMEC/D3); experiment: MTT assay on human neovascular cells; format: cell-based
FGFR2 = FGFR2 (Homo sapiens (Human), UniProt P21802); experiment: Caliper Mobility Shift kinase inhibition test; format: biochemical; details: for inhibition at 0.1 µM: 100 nM
Experimental: as §1, §2

PDGFRβ = PDGFRβ (Homo sapiens (Human), UniProt P09619); experiment: Caliper Mobility Shift kinase inhibition test; format: biochemical; details: for inhibition at 0.1 µM: 100 nM
Experimental: as §1, §2

osteosarcoma cells MNNG [5] = experiment: Adhesion test of osteosarcoma cells on fibronectin; format: cell-based; details: 0.1, 0.2 and 0.4 uM, 48 hours, compared with positive drugs
Experimental: (§4) Each well was dried, and added with 100 μL of 33% glacial acetic acid and the crystal violet was dissolved by shaking for 10 minutes. The absorbance was measured by a microplate reader at […], and the adhesion rate (%)=(OD value of tumor cells in the drug-added treated group−Hu FN OD value)/(OD value of untreated tumor cells−Hu FN OD value)×100%.

osteosarcoma cells MG63 [6] = experiment: Adhesion test of osteosarcoma cells on fibronectin; format: cell-based; details: 0.1, 0.2 and 0.4 uM, 48 hours, compared with positive drugs
Experimental: as §4

[7] = compared with multiple positive drugs

CCN1CCN(c2ccc(Nc3ncc(C)c(Nc4ccc5cn[nH]c5c4)n3)cc2OC)CC1 [Compound 6i, N^2-(4-(4-ethylpiperazine-1-yl)-3-methoxyphenyl)-N^4-(1H-indazol-6-yl)-5-methylpyrimidine-2,4-diamine]
IC50 ([1]; Homo sapiens, MTT, read-out: Inhibitory activity (IC50) HBVP): 550 ± 98 nM
inhibitory activity on HBVP (in words) [1, 7]: strong inhibitory activity
inhibition at 0.1 µM (EGFR L858R/T790M/C797S; average, read-out: Average % inhibition EGFR L858R/T790M/C797S): 74.5%
inhibition at 0.1 µM (EGFR L858R/T790M/C797S; replicate 1, read-out: % inhibition 1 EGFR L858R/T790M/C797S): 73.4%
inhibition at 0.1 µM (EGFR L858R/T790M/C797S; replicate 2, read-out: % inhibition 2 EGFR L858R/T790M/C797S): 75.7%
inhibition at 0.1 µM (FGFR3; average, read-out: Average % inhibition FGFR3): 10.9%
inhibition at 0.1 µM (FGFR3; replicate 1, read-out: % inhibition 1 FGFR3): 8.1%
inhibition at 0.1 µM (FGFR3; replicate 2, read-out: % inhibition 2 FGFR3): 13.7%
inhibition at 0.1 µM (BTK; average, read-out: Average % inhibition BTK): 50.2%
inhibition at 0.1 µM (BTK; replicate 1, read-out: % inhibition 1 BTK): 49.1%
inhibition at 0.1 µM (BTK; replicate 2, read-out: % inhibition 2 BTK): 51.3%
inhibition at 0.1 µM (EGFR; average, read-out: Average % inhibition EGFR): 42.3%
inhibition at 0.1 µM (EGFR; replicate 1, read-out: % inhibition 1 EGFR): 40.9%
inhibition at 0.1 µM (EGFR; replicate 2, read-out: % inhibition 2 EGFR): 43.6%
inhibition at 0.1 µM (FGFR1; average, read-out: Average % inhibition FGFR1): 65.8%
inhibition at 0.1 µM (FGFR1; replicate 1, read-out: % inhibition 1 FGFR1): 65%
inhibition at 0.1 µM (FGFR1; replicate 2, read-out: % inhibition 2 FGFR1): 66.6%
inhibition at 0.1 µM (EGFR L858R; average, read-out: Average % inhibition EGFR L858R): 62.1%
inhibition at 0.1 µM (EGFR L858R; replicate 1, read-out: % inhibition 1 EGFR L858R): 61.7%
inhibition at 0.1 µM (EGFR L858R; replicate 2, read-out: % inhibition 2 EGFR L858R): 62.6%
inhibition at 0.1 µM (EGFR T790M; average, read-out: Average % inhibition EGFR T790M): 56.9%
inhibition at 0.1 µM (EGFR T790M; replicate 1, read-out: % inhibition 1 EGFR T790M): 57%
inhibition at 0.1 µM (EGFR T790M; replicate 2, read-out: % inhibition 2 EGFR T790M): 56.8%
inhibition at 0.1 µM (SRC; average, read-out: Average % inhibition SRC): 92.2%
inhibition at 0.1 µM (SRC; replicate 1, read-out: % inhibition 1 SRC): 91%
inhibition at 0.1 µM (SRC; replicate 2, read-out: % inhibition 2 SRC): 93.5%
inhibition at 0.1 µM (KDR; average, read-out: Average % inhibition KDR): 71.4%
inhibition at 0.1 µM (KDR; replicate 1, read-out: % inhibition 1 KDR): 71.5%
inhibition at 0.1 µM (KDR; replicate 2, read-out: % inhibition 2 KDR): 71.3%
inhibition at 0.1 µM (FLT1; average, read-out: Average % inhibition FLT1): 79.7%
inhibition at 0.1 µM (FLT1; replicate 1, read-out: % inhibition 1 FLT1): 78.7%
inhibition at 0.1 µM (FLT1; replicate 2, read-out: % inhibition 2 FLT1): 80.7%
inhibition at 0.1 µM (EGFR/T790M/L858R; average, read-out: Average % inhibition EGFR/T790M/L858R): 77.2%
inhibition at 0.1 µM (EGFR/T790M/L858R; replicate 1, read-out: % inhibition 1 EGFR/T790M/L858R): 76.6%
inhibition at 0.1 µM (EGFR/T790M/L858R; replicate 2, read-out: % inhibition 2 EGFR/T790M/L858R): 77.9%
inhibitory activity on metastasis (osteosarcoma cells MNNG [2]): strong dose-dependent inhibitory activity
inhibitory activity on metastasis (osteosarcoma cells MG63 [3]): strong dose-dependent inhibitory activity
IC50 ([4]; Homo sapiens, hCMEC/D3, MTT, read-out: Inhibitory activity (IC50) HCMEC-D3): 230 ± 2 nM
inhibitory activity on HCMEC/D3 (in words) [4, 7]: strong inhibitory activity
IC50 (FGFR2): 27 nM
inhibition at 0.1 µM (FGFR2; average, read-out: Average % inhibition FGFR2): 83%
inhibition at 0.1 µM (FGFR2; replicate 1, read-out: % inhibition 1 FGFR2): 83.8%
inhibition at 0.1 µM (FGFR2; replicate 2, read-out: % inhibition 2 FGFR2): 82.1%
inhibitory activity on PDGFRβ (in words) (PDGFRβ): significant inhibitory activities
inhibition at 0.1 µM (PDGFRβ; average, read-out: Average % inhibition PDGFR β): > 100%
inhibition at 0.1 µM (PDGFRβ; replicate 1, read-out: % inhibition 1 PDGFR β): 101%
inhibition at 0.1 µM (PDGFRβ; replicate 2, read-out: % inhibition 2 PDGFR β): 103%
inhibition at 0.1 µM (PDGFRβ; read-out: inhibitory rate on PDGFR-β): 99.8%
IC50 (PDGFRβ; read-out: IC50 PDGFR-β): 1.7 nM
inhibitory activity on adhesion (osteosarcoma cells MNNG [5]): strong dose-dependent inhibitory activity
inhibitory activity on adhesion (osteosarcoma cells MG63 [6]): strong dose-dependent inhibitory activity
